# Measurements as given in patent US20040176349A1, “Antibacterial composition” (priority 2001, published 2004).
# Assays:
# E. faecalis ATCC 10541 = assay: Checkerboard microdilution MIC with PFOB, Table 2; type: cell-based
# Text: The aim of the study was to detect any synergy between PFOB and the other antibiotics. For the purposes of the study, synergy was defined in accordance with the FIC (fractional inhibitory concentration) index, as disclosed by Lorian (1991, In “Antibiotics in Laboratory Medicine” 3rd edition, Eds. Williams & Wilkins; esp. p 434-443).
# E. faecalis 24592 = assay: MIC, microbroth dilution (NCCLS), Table 1; type: cell-based; settings: Enterococcus faecalis, 24592
# Method: (§1) The minimum inhibitory concentration (MIC) of the compounds was determined using the microbroth dilution technique in accordance with NCCLS guidelines, employing Mueller-Hinton broth (National Committee for Clinical Laboratory Standards, NCCLS, 1995 “Methods for dilution antimicrobial susceptibility tests for bacteria that grow aerobically”—approved standard M7-A5).
# (§2) The compounds were tested in isolation, at different concentrations.
# E. faecium NCTC 7171 = assay: MIC, microbroth dilution (NCCLS), Table 1; type: cell-based; settings: Enterococcus faecium, NCTC7171
# Method: as §1, §2
# E. faecalis SFZ = assay: MIC, microbroth dilution (NCCLS), Table 1; type: cell-based; settings: Enterococcus faecalis
# Method: as §1, §2
# E. hirae ATCC 10541 = assay: MIC, microbroth dilution (NCCLS), Table 1; type: cell-based; settings: Enterococcus hirae, ATCC10541
# Method: as §1, §2
# E. faecalis NCTC 5957 = assay: MIC, microbroth dilution (NCCLS), Table 1; type: cell-based; settings: Enterococcus faecalis, NCTC5957
# Method: as §1, §2
# E. faecalis Phillips = assay: MIC, microbroth dilution (NCCLS), Table 1; type: cell-based; settings: Enterococcus faecalis
# Method: as §1, §2
# E. faecalis 5659 (vanA) = assay: Checkerboard microdilution MIC with PFOB, Table 2; type: cell-based
# Text: (§3) The aim of the study was to detect any synergy between PFOB and the other antibiotics. For the purposes of the study, synergy was defined in accordance with the FIC (fractional inhibitory concentration) index, as disclosed by Lorian (1991, In “Antibiotics in Laboratory Medicine” 3rd edition, Eds. Williams & Wilkins; esp. p 434-443). In essence, if the combination of test compounds gives at least a 4-fold reduction in the FIC value for each compound, then a synergy may be considered to exist (i.e. FIC of the combination <0.5=synergy; FIC 0.5-2.0=“indifference”; and FIC >2=antagonism).
# (§4) In Table 2, results in the checkerboard indicating synergy are hatched, and specific optimum synergistic combinations are boxed.
# E.faecalis 78097 (van B) = assay: Checkerboard microdilution MIC with PFOB, Table 2; type: cell-based
# Text: as §3, §4
# E. faecalis ATCC 29212 = assay: Checkerboard microdilution MIC with PFOB, Table 2; type: cell-based
# Text: as §3, §4
# enterococci = assay: Checkerboard study, synergy summary of Example 2; type: cell-based, Enterococcus; settings: in words
# Text: as §3
# VRE 300 2043 = assay: MIC, microbroth dilution (NCCLS), Table 1; type: cell-based, Enterococcus; settings: Enterococcus, VRE
# Method: as §1, §2
# VRE 300 1562 = assay: MIC, microbroth dilution (NCCLS), Table 1; type: cell-based, Enterococcus; settings: Enterococcus, VRE
# Method: as §1, §2
# VRE 1662 = assay: MIC, microbroth dilution (NCCLS), Table 1; type: cell-based, Enterococcus; settings: Enterococcus, VRE
# Method: as §1, §2
# VRE 300 1590 = assay: MIC, microbroth dilution (NCCLS), Table 1; type: cell-based, Enterococcus; settings: Enterococcus, VRE
# Method: as §1, §2
# Enterococcus strains = assay: MIC against Enterococcus strains, summary of Example 1; type: cell-based; settings: in words
# Method: as §1, §2
# [1] = Enterococcus faecalis, read-out: MIC (alone) of Partner
smiles,measurement,setting,value
"O=C(O)[C@H]1/C(=C/CO)O[C@@H]2CC(=O)N21 [CA, clavulanic acid]",MIC of partner antibiotic in the presence of PFOB at 0.5 mg/L,"E. faecalis ATCC 10541; E. faecalis ATCC 10541, PFOB 0.5 mg/L",>64 µg/mL
same,MIC of partner antibiotic in the presence of PFOB at 1 mg/L,"E. faecalis ATCC 10541; E. faecalis ATCC 10541, PFOB 1 mg/L",>64 µg/mL
same,MIC of partner antibiotic in the presence of PFOB at 2 mg/L,"E. faecalis ATCC 10541; E. faecalis ATCC 10541, PFOB 2 mg/L",>64 µg/mL
same,MIC of partner antibiotic in the presence of PFOB at 4 mg/L,"E. faecalis ATCC 10541; E. faecalis ATCC 10541, PFOB 4 mg/L",>64 µg/mL
same,MIC of partner antibiotic in the presence of PFOB at 8 mg/L,"E. faecalis ATCC 10541; E. faecalis ATCC 10541, PFOB 8 mg/L",>64 µg/mL
same,MIC of partner antibiotic in the presence of PFOB at 16 mg/L,"E. faecalis ATCC 10541; E. faecalis ATCC 10541, PFOB 16 mg/L",>64 µg/mL
same,MIC of partner antibiotic in the presence of PFOB at 32 mg/L,"E. faecalis ATCC 10541; E. faecalis ATCC 10541, PFOB 32 mg/L",>64 µg/mL
same,MIC,"E. faecalis ATCC 10541; Enterococcus faecalis, ATCC10541, read-out: MIC (alone) of Partner",> 64 µg/mL
same,MIC,E. faecalis 24592,> 128 µg/mL
same,MIC,E. faecium NCTC 7171,> 128 µg/mL
same,MIC,E. faecalis SFZ,> 128 µg/mL
same,MIC,E. hirae ATCC 10541,> 128 µg/mL
same,MIC,E. faecalis NCTC 5957,> 128 µg/mL
same,MIC,E. faecalis Phillips,> 128 µg/mL
same,MIC of partner antibiotic in the presence of PFOB at 0.5 mg/L,"E. faecalis 5659 (vanA); E. faecalis 5659 (vanA), PFOB 0.5 mg/L",>64 µg/mL
same,MIC of partner antibiotic in the presence of PFOB at 1 mg/L,"E. faecalis 5659 (vanA); E. faecalis 5659 (vanA), PFOB 1 mg/L",>64 µg/mL
same,MIC of partner antibiotic in the presence of PFOB at 2 mg/L,"E. faecalis 5659 (vanA); E. faecalis 5659 (vanA), PFOB 2 mg/L",>64 µg/mL
same,MIC of partner antibiotic in the presence of PFOB at 4 mg/L,"E. faecalis 5659 (vanA); E. faecalis 5659 (vanA), PFOB 4 mg/L",>64 µg/mL
same,MIC of partner antibiotic in the presence of PFOB at 8 mg/L,"E. faecalis 5659 (vanA); E. faecalis 5659 (vanA), PFOB 8 mg/L",>64 µg/mL
same,MIC of partner antibiotic in the presence of PFOB at 16 mg/L,"E. faecalis 5659 (vanA); E. faecalis 5659 (vanA), PFOB 16 mg/L",>64 µg/mL
same,MIC of partner antibiotic in the presence of PFOB at 32 mg/L,"E. faecalis 5659 (vanA); E. faecalis 5659 (vanA), PFOB 32 mg/L",>64 µg/mL
same,MIC,E. faecalis 5659 (vanA); [1],> 64 µg/mL
same,MIC of partner antibiotic in the presence of PFOB at 0.5 mg/L,"E.faecalis 78097 (van B); E.faecalis 78097 (van B), PFOB 0.5 mg/L",>64 µg/mL
same,MIC of partner antibiotic in the presence of PFOB at 1 mg/L,"E.faecalis 78097 (van B); E.faecalis 78097 (van B), PFOB 1 mg/L",>64 µg/mL
same,MIC of partner antibiotic in the presence of PFOB at 2 mg/L,"E.faecalis 78097 (van B); E.faecalis 78097 (van B), PFOB 2 mg/L",>64 µg/mL
same,MIC of partner antibiotic in the presence of PFOB at 4 mg/L,"E.faecalis 78097 (van B); E.faecalis 78097 (van B), PFOB 4 mg/L",>64 µg/mL
same,MIC of partner antibiotic in the presence of PFOB at 8 mg/L,"E.faecalis 78097 (van B); E.faecalis 78097 (van B), PFOB 8 mg/L",>64 µg/mL
same,MIC of partner antibiotic in the presence of PFOB at 16 mg/L,"E.faecalis 78097 (van B); E.faecalis 78097 (van B), PFOB 16 mg/L",>64 µg/mL
same,MIC of partner antibiotic in the presence of PFOB at 32 mg/L,"E.faecalis 78097 (van B); E.faecalis 78097 (van B), PFOB 32 mg/L",>64 µg/mL
same,MIC,E.faecalis 78097 (van B); [1],> 64 µg/mL
same,MIC of partner antibiotic in the presence of PFOB at 0.5 mg/L,"E. faecalis ATCC 29212; E. faecalis ATCC 29212, PFOB 0.5 mg/L",>64 µg/mL
same,MIC of partner antibiotic in the presence of PFOB at 1 mg/L,"E. faecalis ATCC 29212; E. faecalis ATCC 29212, PFOB 1 mg/L",>64 µg/mL
same,MIC of partner antibiotic in the presence of PFOB at 2 mg/L,"E. faecalis ATCC 29212; E. faecalis ATCC 29212, PFOB 2 mg/L",>64 µg/mL
same,MIC of partner antibiotic in the presence of PFOB at 4 mg/L,"E. faecalis ATCC 29212; E. faecalis ATCC 29212, PFOB 4 mg/L",>64 µg/mL
same,MIC of partner antibiotic in the presence of PFOB at 8 mg/L,"E. faecalis ATCC 29212; E. faecalis ATCC 29212, PFOB 8 mg/L",>64 µg/mL
same,MIC of partner antibiotic in the presence of PFOB at 16 mg/L,"E. faecalis ATCC 29212; E. faecalis ATCC 29212, PFOB 16 mg/L",>64 µg/mL
same,MIC of partner antibiotic in the presence of PFOB at 32 mg/L,"E. faecalis ATCC 29212; E. faecalis ATCC 29212, PFOB 32 mg/L",>64 µg/mL
same,MIC,"E. faecalis ATCC 29212; Enterococcus faecalis, ATCC29212, read-out: MIC (alone) of Partner",> 64 µg/mL
same,synergy with PFOB,enterococci,No synergy
same,MIC,VRE 300 2043,> 128 µg/mL
same,MIC,VRE 300 1562,> 128 µg/mL
same,MIC,VRE 1662,> 128 µg/mL
same,MIC,VRE 300 1590,> 128 µg/mL
same,effect on the MIC of CAZ,Enterococcus strains; clavulanic acid added at 4 mg/L,no significant effect
same,activity in isolation against the Enterococcus strains tested,"Enterococcus strains; compound alone, all strains of Table 1",inactive
